Assay results as given in PubChem BioAssay (NCI).
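Where inhibition never reached the appropriate level, the endpoint shown equals the highest concentration tested. Otherwise, values were interpolated linearly from a five-concentration, 48-hour dose response in 96-well plates. The concentration for 50% growth inhibition is given as GI50. TGI denotes the concentration required for complete inhibition of growth.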

Tests used:
Assay in all cases: inhibition of tumour cell growth, NCI panel, 48 h
786-0 renal = system: 786-0 renal
A498 renal = system: A498 renal
A549 NSCLC = system: A549 NSCLC
ACHN renal = system: ACHN renal
BT-549 breast = system: BT-549 breast
CAKI-1 renal = system: CAKI-1 renal
CCRF-CEM leukemia = system: CCRF-CEM leukemia
COLO 205 colon = system: COLO 205 colon
DU-145 prostate = system: DU-145 prostate
EKVX NSCLC = system: EKVX NSCLC
HCC-2998 colon = system: HCC-2998 colon
HCT-116 colon = system: HCT-116 colon
HCT-15 colon = system: HCT-15 colon
HL-60(TB) leukemia = system: HL-60(TB) leukemia
HOP-62 NSCLC = system: HOP-62 NSCLC
HOP-92 NSCLC = system: HOP-92 NSCLC
HS 578T breast = system: HS 578T breast
HT29 colon = system: HT29 colon
IGROV1 ovarian = system: IGROV1 ovarian
K-562 leukemia = system: K-562 leukemia
KM12 colon = system: KM12 colon
LOX IMVI melanoma = system: LOX IMVI melanoma
M14 melanoma = system: M14 melanoma
MALME-3M melanoma = system: MALME-3M melanoma
MCF7 breast = system: MCF7 breast
MDA-MB-231 breast = system: MDA-MB-231 breast
MDA-MB-435 = system: MDA-MB-435
MDA-MB-468 breast = system: MDA-MB-468 breast
NCI-H226 lung = system: NCI-H226 lung
NCI-H23 lung = system: NCI-H23 lung
NCI-H460 lung = system: NCI-H460 lung
NCI-H522 lung = system: NCI-H522 lung
NCI/ADR-RES ovarian = system: NCI/ADR-RES ovarian
OVCAR-3 ovarian = system: OVCAR-3 ovarian
OVCAR-4 ovarian = system: OVCAR-4 ovarian
OVCAR-5 ovarian = system: OVCAR-5 ovarian
OVCAR-8 ovarian = system: OVCAR-8 ovarian
PC-3 prostate = system: PC-3 prostate
RPMI-8226 leukemia = system: RPMI-8226 leukemia
RXF 393 renal = system: RXF 393 renal
SF-268 CNS = system: SF-268 CNS
SF-295 CNS = system: SF-295 CNS
SF-539 CNS = system: SF-539 CNS
SK-MEL-2 melanoma = system: SK-MEL-2 melanoma
SK-MEL-28 melanoma = system: SK-MEL-28 melanoma
SK-MEL-5 melanoma = system: SK-MEL-5 melanoma
SK-OV-3 ovarian = system: SK-OV-3 ovarian
SN12C renal = system: SN12C renal
SNB-19 CNS = system: SNB-19 CNS
SNB-75 CNS = system: SNB-75 CNS
SR leukemia = system: SR leukemia
SW-620 colon = system: SW-620 colon
T-47D breast = system: T-47D breast
TK-10 renal = system: TK-10 renal
U251 CNS = system: U251 CNS
UACC-257 melanoma = system: UACC-257 melanoma
UACC-62 melanoma = system: UACC-62 melanoma
UO-31 renal = system: UO-31 renal

## COc1ccc(-c2nc(S(=O)(=O)c3ccc(C)cc3)c(S(C)(=O)=O)o2)cc1
786-0 renal
  GI50: 1.64 µM
  TGI: 3.47 µM
A498 renal
  GI50: 14.3 µM
  TGI: 27.4 µM
A549 NSCLC
  GI50: 18.9 µM
  TGI: 39.4 µM
ACHN renal
  GI50: 1.72 µM
  TGI: 3.11 µM
BT-549 breast
  GI50: 3.39 µM
  TGI: 10 µM
CAKI-1 renal
  GI50: 2.82 µM
  TGI: 9.83 µM
CCRF-CEM leukemia
  GI50: 2.38 µM
  TGI: 6.43 µM
COLO 205 colon
  GI50: 2.21 µM
  TGI: 4.95 µM
DU-145 prostate
  GI50: 2.57 µM
  TGI: 6.82 µM
EKVX NSCLC
  GI50: 11 µM
  TGI: 25.4 µM
HCC-2998 colon
  GI50: 7.61 µM
  TGI: 21.1 µM
HCT-116 colon
  GI50: 1.78 µM
  TGI: 3.34 µM
HCT-15 colon
  GI50: 1.96 µM
  TGI: 4.2 µM
HL-60(TB) leukemia
  GI50: 1.8 µM
  TGI: 6.14 µM
HOP-62 NSCLC
  GI50: 20.2 µM
  TGI: 40 µM
HOP-92 NSCLC
  GI50: 3.03 µM
  TGI: 11.6 µM
HS 578T breast
  GI50: 5.35 µM
  TGI: 34 µM
HT29 colon
  GI50: 2.09 µM
  TGI: 4.37 µM
IGROV1 ovarian
  GI50: 7.16 µM
  TGI: 20.4 µM
K-562 leukemia
  GI50: 2.91 µM
  TGI: > 100 µM
KM12 colon
  GI50: 16.2 µM
  TGI: 32.2 µM
LOX IMVI melanoma
  GI50: 1.56 µM
  TGI: 2.96 µM
M14 melanoma
  GI50: 1.95 µM
  TGI: 4.59 µM
MALME-3M melanoma
  GI50: 1.45 µM
  TGI: 2.79 µM
MCF7 breast
  GI50: 2.14 µM
  TGI: 6.1 µM
MDA-MB-231 breast
  GI50: 1.73 µM
  TGI: 3.35 µM
MDA-MB-435
  GI50: 5.3 µM
  TGI: 19.6 µM
MDA-MB-468 breast
  GI50: 1.6 µM
  TGI: 3.23 µM
NCI-H226 lung
  GI50: 16.9 µM
  TGI: 38.5 µM
NCI-H23 lung
  GI50: 5.57 µM
  TGI: 19.1 µM
NCI-H460 lung
  GI50: 10.1 µM
  TGI: 24.1 µM
NCI-H522 lung
  GI50: 1.66 µM
  TGI: 3.28 µM
NCI/ADR-RES ovarian
  GI50: 12 µM
  TGI: 37.5 µM
OVCAR-3 ovarian
  GI50: 1.83 µM
  TGI: 3.37 µM
OVCAR-4 ovarian
  GI50: 3.1 µM
  TGI: 11.1 µM
OVCAR-5 ovarian
  GI50: 10.9 µM
  TGI: 23.1 µM
OVCAR-8 ovarian
  GI50: 10.5 µM
  TGI: 27.1 µM
PC-3 prostate
  GI50: 11.1 µM
  TGI: 25.6 µM
RPMI-8226 leukemia
  GI50: 3.05 µM
  TGI: 17.3 µM
RXF 393 renal
  GI50: 1.47 µM
  TGI: 2.94 µM
SF-268 CNS
  GI50: 12.5 µM
  TGI: 30 µM
SF-295 CNS
  GI50: 14.6 µM
  TGI: 27.8 µM
SF-539 CNS
  GI50: 1.83 µM
  TGI: 3.8 µM
SK-MEL-2 melanoma
  GI50: 14.3 µM
  TGI: 27.7 µM
SK-MEL-28 melanoma
  GI50: 3.2 µM
  TGI: 11 µM
SK-MEL-5 melanoma
  GI50: 12.8 µM
  TGI: 26.2 µM
SK-OV-3 ovarian
  GI50: 18.5 µM
  TGI: 35.1 µM
SN12C renal
  GI50: 4.94 µM
  TGI: 17.6 µM
SNB-19 CNS
  GI50: 15.1 µM
  TGI: 28.3 µM
SNB-75 CNS
  GI50: 11.3 µM
  TGI: 23.7 µM
SR leukemia
  GI50: 2.83 µM
  TGI: > 100 µM
SW-620 colon
  GI50: 1.66 µM
  TGI: 3.32 µM
T-47D breast
  GI50: 2.03 µM
  TGI: 4.55 µM
TK-10 renal
  GI50: 7.76 µM
  TGI: 21 µM
U251 CNS
  GI50: 17 µM
  TGI: 31.7 µM
UACC-257 melanoma
  GI50: 9.8 µM
  TGI: 23.1 µM
UACC-62 melanoma
  GI50: 7.59 µM
  TGI: 20.4 µM
UO-31 renal
  GI50: 3.43 µM
  TGI: 15.3 µM
